Test results: PMC6985722 (Antimicrobial Agents and Chemotherapy, 2020)
Values joined by “and” are separate entries in the source; they are usually repeats but may differ in a detail not shown here. Identical values can stand only once.

Assay: RSV human challenge study: safety (adverse events, clinical and laboratory tests, ECG)
Format: in vivo
Conditions: for TEAE Abdominal discomfort / TEAE Abdominal distention / TEAE Abdominal pain (Table 4) / TEAE Abdominal pain (Table S4, listed apart from Abdominal pain lower) / TEAE Abdominal pain lower / TEAE Blood and lymphatic system disorders / TEAE Cardiac disorders / TEAE Catheter site erythema / TEAE Catheter site paraesthesia / TEAE Decreased appetite / TEAE Diarrhea / TEAE Dizziness / TEAE Epistaxis / TEAE Eye disorders / TEAE Eye pain / TEAE Food poisoning / TEAE Gastroenteritis / TEAE Gastrointestinal disorders / TEAE General disorders and administration site conditions / TEAE Headache / TEAE Hypoaesthesia / TEAE Infections and infestations / TEAE Injury, poisoning and procedural complications / TEAE Joint injury / TEAE Lip dry / TEAE Lymphadenopathy / TEAE Metabolism and nutrition disorders / TEAE Musculoskeletal and connective tissue disorders / TEAE Musculoskeletal pain / TEAE Myalgia / TEAE Myocarditis / TEAE Nausea / TEAE Nervous system disorders / TEAE Ocular hyperemia / TEAE Oropharyngeal pain / TEAE Pain in jaw / TEAE Pyrexia / TEAE Rash / TEAE Respiratory, thoracic and mediastinal disorders / TEAE Rhinitis / TEAE Skin abrasion / TEAE Skin and subcutaneous tissue disorders / TEAE Tension headache / TEAE Total / TEAE URTI / TEAE Vessel puncture site erythema / TEAE Viral URTI / TEAE Vomiting: safety analysis set
Text: Twice-daily collection of nasal wash samples allowed measurement of viral load via RT-qPCR and quantitative culture. RT-qPCR results were reported as PFUe/ml when the standard curve included in each assay contained a known infectious amount (PFU) of RSV, as described previously ([30]). Subjects reported the occurrence and severity of symptoms three times daily using a 10-item subject symptom diary card as previously reported ([12]) (see Supplemental Methods). Throughout the quarantine period, used tissues were collected and weighed daily, and total nasal mucus weight was recorded. PK assessments were based on venous blood samples. Safety assessments included measurement of vital signs, standard 12-lead ECG recordings, spirometry, a complete physical examination, and a respiratory-directed physical examination. AEs were monitored daily, coded according to the Medical Dictionary for Regulatory Activities Version 20.0, and graded according to the National Cancer Institute Common Terminology Criteria for Adverse Events Version 4.0 (see Supplemental Methods for further details).
The primary efficacy analysis population (the ITT-I analysis set) comprised all randomized subjects who received challenge virus and at least one dose of study drug and met the criterion for laboratory-confirmed RSV infection (presence of detectable RSV). Sensitivity analyses were based on a subset of the ITT-I population who had first detectable RSV infection prior to study drug administration (the ITT-A analysis set) and a fixed time period of 6.5 days (comprising data for all subjects for 6.5 days of evaluation after the first dose, regardless of the staggered commencement of dosing). The safety analysis set comprised all subjects who received challenge virus; the PK analysis set comprised all subjects who received the challenge virus and provided at least one postdose PK result. […]
unexpected, in the opinion of the investigator, were captured as AEs. Following the viral challenge, upper and lower respiratory tract symptoms identified by the directed physical examination were expected, presumed to represent virus infection consequent to viral challenge and not captured as an AE unless they met the criteria for an AE and were deemed clinically significant in the opinion of the investigator. AEs were monitored daily from screening (day –2) through to the follow -up visit (day 28) and coded to system organ class and preferred term according to the Medical Dictionary for Regulatory Activities Version
20.0. AEs were graded according to the National Cancer Institute Common Terminology Criteria for Adverse Events Version 4.0, andthe relationship to the investigational medical product or to challenge virus was recorded. An AE with an onset date/time after […]
that were considered by the investigator to be causally related to challenge virus can be included in the analysis of AEs.
Outcomes. Safety outcomes included the occurrence of AEs. PK outcomes included the maximum plasma concentration, the minimum plasma concentration, the time to maximum plasma concentration, and the area under the plasma concentration-time curve with a dosing interval, calculated by the linear trapezoidal rule.

Which results are given for `NCc1ccc2c(c1)nc(CN1C(=O)C3(CC3)c3ccc(F)cc31)n2CCCC(F)(F)F` [RV521]?
Grade 2 TEAEs, number of events (200 mg): 2; Subjects with gastrointestinal TEAEs (200 mg): 32%; Subjects with grade 2 TEAEs (200 mg): 2 subjects; Treatment-emergent AEs, number of events (200 mg): 19; Clinical or laboratory tests (vital signs, liver enzymes) vs placebo (200 mg and 350 mg): No notable differences; ECG findings (200 mg and 350 mg): no clinically significant ECG findings; TEAEs of grade ≥3 (200 mg and 350 mg): no TEAEs of grade ≥3; TEAE Abdominal discomfort (200 mg): 0 number of subjects (%); TEAE Abdominal distention (200 mg): 0 number of subjects (%); TEAE Abdominal pain (Table 4) (200 mg): 2 (9) No. of subjects (%); TEAE Abdominal pain (Table S4, listed apart from Abdominal pain lower) (200 mg): 2 (9) number of subjects (%); TEAE Abdominal pain lower (200 mg): 0 number of subjects (%); TEAE Blood and lymphatic system disorders (200 mg): 0 number of subjects (%); TEAE Cardiac disorders (200 mg): 0 number of subjects (%); TEAE Catheter site erythema (200 mg): 0 number of subjects (%); TEAE Catheter site paraesthesia (200 mg): 1 (5) number of subjects (%); TEAE Decreased appetite (200 mg): 1 (5) number of subjects (%); TEAE Diarrhea (200 mg): 3 (14) No. of subjects (%); TEAE Dizziness (200 mg): 1 (5) number of subjects (%); TEAE Epistaxis (200 mg): 1 (5) number of subjects (%); TEAE Eye disorders (200 mg): 0 number of subjects (%); TEAE Eye pain (200 mg): 0 number of subjects (%); TEAE Food poisoning (200 mg): 1 (5) number of subjects (%); TEAE Gastroenteritis (200 mg): 0 number of subjects (%); TEAE Gastrointestinal disorders (200 mg): 7 (32) number of subjects (%); TEAE General disorders and administration site conditions (200 mg): 1 (5) number of subjects (%); TEAE Headache (200 mg): 0 No. of subjects (%); TEAE Hypoaesthesia (200 mg): 1 (5) number of subjects (%); TEAE Infections and infestations (200 mg): 3 (14) number of subjects (%); TEAE Injury, poisoning and procedural complications (200 mg): 1 (5) number of subjects (%); TEAE Joint injury (200 mg): 0 number of subjects (%); TEAE Lip dry (200 mg): 0 number of subjects (%); TEAE Lymphadenopathy (200 mg): 0 number of subjects (%); TEAE Metabolism and nutrition disorders (200 mg): 1 (5) number of subjects (%); TEAE Musculoskeletal and connective tissue disorders (200 mg): 0 number of subjects (%); TEAE Musculoskeletal pain (200 mg): 0 number of subjects (%); TEAE Myalgia (200 mg): 0 number of subjects (%); TEAE Myocarditis (200 mg): 0 number of subjects (%); TEAE Nausea (200 mg): 2 (9) No. of subjects (%); TEAE Nervous system disorders (200 mg): 2 (9) number of subjects (%); TEAE Ocular hyperemia (200 mg): 0 number of subjects (%); TEAE Oropharyngeal pain (200 mg): 0 number of subjects (%); TEAE Pain in jaw (200 mg): 0 number of subjects (%); TEAE Pyrexia (200 mg): 0 number of subjects (%); TEAE Rash (200 mg): 0 No. of subjects (%); TEAE Respiratory, thoracic and mediastinal disorders (200 mg): 1 (5) number of subjects (%); TEAE Rhinitis (200 mg): 1 (5) No. of subjects (%); TEAE Skin abrasion (200 mg): 1 (5) number of subjects (%); TEAE Skin and subcutaneous tissue disorders (200 mg): 1 (5) number of subjects (%); TEAE Tension headache (200 mg): 0 number of subjects (%); TEAE Total (200 mg): 11 (50) number of subjects (%) and 11 number of subjects (%); TEAE URTI (200 mg): 2 (9) No. of subjects (%); TEAE Vessel puncture site erythema (200 mg): 0 number of subjects (%); TEAE Viral URTI (200 mg): 0 No. of subjects (%); TEAE Vomiting (200 mg): 1 (5) No. of subjects (%); Grade 2 TEAEs, number of events (350 mg): 4; Subjects with gastrointestinal TEAEs (350 mg): 59%; Subjects with grade 2 TEAEs (350 mg): 3 subjects; TEAE Abdominal discomfort (350 mg): 1 (5) number of subjects (%); TEAE Abdominal distention (350 mg): 1 (5) number of subjects (%); TEAE Abdominal pain (Table 4) (350 mg): 5 (23) No. of subjects (%); TEAE Abdominal pain (Table S4, listed apart from Abdominal pain lower) (350 mg): 4 (18) number of subjects (%); TEAE Abdominal pain lower (350 mg): 1 (5) number of subjects (%); TEAE Blood and lymphatic system disorders (350 mg): 0 number of subjects (%); TEAE Cardiac disorders (350 mg): 0 number of subjects (%); TEAE Catheter site erythema (350 mg): 1 (5) number of subjects (%); TEAE Catheter site paraesthesia (350 mg): 0 number of subjects (%); TEAE Decreased appetite (350 mg): 0 number of subjects (%); TEAE Diarrhea (350 mg): 9 (41) No. of subjects (%); TEAE Dizziness (350 mg): 1 (5) number of subjects (%); TEAE Epistaxis (350 mg): 0 number of subjects (%); TEAE Eye disorders (350 mg): 0 number of subjects (%); TEAE Eye pain (350 mg): 0 number of subjects (%); TEAE Food poisoning (350 mg): 0 number of subjects (%); TEAE Gastroenteritis (350 mg): 1 (5) number of subjects (%); TEAE Gastrointestinal disorders (350 mg): 13 (59) number of subjects (%); TEAE General disorders and administration site conditions (350 mg): 1 (5) number of subjects (%); TEAE Headache (350 mg): 0 No. of subjects (%); TEAE Hypoaesthesia (350 mg): 0 number of subjects (%); TEAE Infections and infestations (350 mg): 5 (23) number of subjects (%); TEAE Injury, poisoning and procedural complications (350 mg): 0 number of subjects (%); TEAE Joint injury (350 mg): 0 number of subjects (%); TEAE Lip dry (350 mg): 1 (5) number of subjects (%); TEAE Lymphadenopathy (350 mg): 0 number of subjects (%); TEAE Metabolism and nutrition disorders (350 mg): 0 number of subjects (%); TEAE Musculoskeletal and connective tissue disorders (350 mg): 1 (5) number of subjects (%); TEAE Musculoskeletal pain (350 mg): 0 number of subjects (%); TEAE Myalgia (350 mg): 1 (5) number of subjects (%); TEAE Myocarditis (350 mg): 0 number of subjects (%); TEAE Nausea (350 mg): 12 (55) No. of subjects (%); TEAE Nervous system disorders (350 mg): 1 (5) number of subjects (%); TEAE Ocular hyperemia (350 mg): 0 number of subjects (%); TEAE Oropharyngeal pain (350 mg): 0 number of subjects (%); TEAE Pain in jaw (350 mg): 0 number of subjects (%); TEAE Pyrexia (350 mg): 0 number of subjects (%); TEAE Rash (350 mg): 0 No. of subjects (%); TEAE Respiratory, thoracic and mediastinal disorders (350 mg): 0 number of subjects (%); TEAE Rhinitis (350 mg): 2 (9) No. of subjects (%); TEAE Skin abrasion (350 mg): 0 number of subjects (%); TEAE Skin and subcutaneous tissue disorders (350 mg): 1 (5) number of subjects (%); TEAE Tension headache (350 mg): 0 number of subjects (%); TEAE Total (350 mg): 16 (73) number of subjects (%); TEAE URTI (350 mg): 0 No. of subjects (%); TEAE Vessel puncture site erythema (350 mg): 0 number of subjects (%); TEAE Viral URTI (350 mg): 2 (9) No. of subjects (%); TEAE Vomiting (350 mg): 2 (9) No. of subjects (%); Treatment-related SAEs, deaths, or discontinuations due to AEs (any treatment group): No treatment-related serious adverse events (SAEs), deaths, or discontinuations due to AEs
